Laboratory results taken from PMC8234273, “A Sesquiterpene Synthase from the Endophytic Fungus Serendipita indica Catalyzes Formation of Viridiflorol” (Biomolecules, 2021).

Target: T1, SiTPS (Serendipita indica, UniProt G4TNA6)
T1 construct: gene PIIN_06735; full coding region from S. indica cDNA, C-terminal His-tag (pET28b+), E. coli C41, His SpinTrap purified and desalted
T1 sequence (G4TNA6 1-515): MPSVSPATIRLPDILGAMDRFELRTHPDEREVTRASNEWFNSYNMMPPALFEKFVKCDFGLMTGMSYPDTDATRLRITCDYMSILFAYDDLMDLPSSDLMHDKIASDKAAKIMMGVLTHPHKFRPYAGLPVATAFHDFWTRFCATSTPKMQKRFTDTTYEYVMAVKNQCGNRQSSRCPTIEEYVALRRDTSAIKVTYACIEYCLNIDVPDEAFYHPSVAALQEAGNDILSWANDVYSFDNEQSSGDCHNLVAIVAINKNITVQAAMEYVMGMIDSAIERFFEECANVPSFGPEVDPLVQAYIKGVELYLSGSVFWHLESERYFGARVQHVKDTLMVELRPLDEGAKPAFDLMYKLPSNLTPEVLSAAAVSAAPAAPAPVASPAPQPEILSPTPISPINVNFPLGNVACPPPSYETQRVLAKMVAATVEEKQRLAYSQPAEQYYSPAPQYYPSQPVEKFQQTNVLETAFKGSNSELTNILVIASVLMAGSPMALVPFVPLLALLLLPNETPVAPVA
Experiment: in vitro terpene synthase assay, GC-MS of hexane extract
Assay type: biochemical
Conditions: 10 mM MgCl2, 100 mM KCl, 5 mM DTT, 10% glycerol, 50 mM HEPES pH 7.2, 30 °C, 1 h

## CC(C)=CCC/C(C)=C/CC/C(C)=C/COP(=O)(O)OP(=O)(O)O [E,E-FPP]
  in vitro terpene synthase assay, GC-MS of hexane extract: Hexane extracts showed activity only when SiTPS was incubated with E,E-FPP
